{
  "source": "patent US12479895B2",
  "about": "“C-terminal CDNF and MANF fragments, pharmaceutical compositions comprising same and uses thereof” (MyNeuroCure Oy, priority 2018, dated 2025)",
  "key": {"ER stressed SCG neurons": {"tested_on": "ER stressed SCG neurons", "assay": "Survival of tunicamycin-treated (ER stressed) SCG sympathetic neurons after microinjection", "format": "cell-based, mice", "details": "for survived neurons as % compared to neurons grown in the presence of NGF: Table 1A (FIG. 14), microinjected into cytoplasm, tunicamycin 2 μM, CDNF (400); for Fold change of survived neurons compared to neurons injected with PBS: data of Table 1 divided by values of PBS", "experimental": "Non-neuronal cells were removed by extensive preplating. Almost pure neurons were cultured in polyornithine/laminin (Sigma)-coated 35-mm plastic dishes in the small-size standard microislands in the Neurobasal medium and B27 supplement (Invitrogen/Gibco) in the presence of 30 ng/ml mouse nerve growth factor (NGF) (Promega) for 5-6 days. NGF was deprived by extensive washing and addition of the function-blocking anti-NGF antibodies (Roche). The neurons were pressure-microinjected with special neuronal microinjection equipment (Hellman et al., 2011; Hamner et al., 2001; Lindholm et al., 2002; Sun et al., 2001; Yu et al., 2003)(Sun et al., 2001; Sun et al., 2003). For the survival assay, all neurons on the microislands were counted in the beginning (initial number) and the end (three days) of the experiment and expressed as % of initial.\nMicroinjection of the sympathetic neurons was performed as described earlier (Yu, L. Y., Jokitalo, E., Sun, Y. F., Mehlen, P., Lindholm, D., Saarma, M., and Arumae, U. (2003) J Cell Biol. 163, 987-997). Plasmids for CDNF have been described earlier. Briefly, newborn mouse SCG neurons were grown with NGF (Promega) for 5-6 days then the nuclei were microinjected with the expression plasmids for full-length (FL)-CDNF and C-CDNF together with a reporter plasmid for enhanced green fluorescent protein (EGFP), using vector concentration of 10 ng/ul in each experiment. […] For protein microinjection, recombinant full length (FL)-CDNF, C-CDNF proteins in PBS at 200 ng/ul were microinjected directly into the cytoplasm together with fluorescent reporter Dextran Texas Red (MW 70000 Da) (Invitrogen, Molecular Probes) that facilitates identification of the successfully injected neurons. Next day tunicamycin (2 μM) was added, and after 3 days the living fluorescent neurons were counted. Living fluorescent (EGFP-expressing or Dextran Texas Red-containing) neurons were “blindly” counted three days later and expressed as percent of initial living fluorescent neurons counted 2-3 hours after microinjection. The experiments with plasmids were repeated on independent cultures 5 times for plasmid experiment, whereas four independent protein injection experiments were performed. On average, 50-80 neurons were successfully injected per experimental group. The results were expressed as the mean±the SEM. Data of each experimental group was compared with control plasmid PCR3.1 (vector) or PBS (in the protein injection experiments) by one-way ANOVA and post hoc Dunnett's t test. The null hypothesis was rejected at p<0.05."}, "dopamine neurons": {"tested_on": "dopamine neurons", "assay": "Survival of TH-positive dopamine neurons in dissociated midbrain floor cultures", "format": "cell-based, mouse", "details": "for survived neurons as % compared to neurons grown in the presence of GDNF: Table 3A (FIG. 15), 5 days; for Fold change of survived neurons compared to neurons grown without growth factors: data of Table 3 divided by values of no factor", "experimental": "To study the dopamine neurons (Yu et al., 2008; Yu and Arumae, 2008), the midbrain floors were dissected from the ventral mesencephali of 13.5-d-old NMRI strain mouse embryos. Tissues were incubated with 0.5% trypsin (ICN Biomedical), then mechanically dissociated using a large fire-polished Pasteur pipette. The neurons were grown on the poly-L-ornithine-coated (Sigma) 96-well culture plates in DMEM/F12 medium (Invitrogen) containing N2 supplement (Invitrogen) in the presence or absence of GDNF (100 ng/ml) or with CDNF, MANF, C-CDNF and C-MANF polypeptides at different concentrations for five days. Same amount of the neurons were plated to each well at the beginning of the experiments. The cultures without added neurotrophic factors served as the negative control. As the midbrain cultures contain several neuronal types, the cultures were fixed and immunostained with the antibodies to tyrosine hydroxylase (TH) (Millipore), a specific marker for the dopaminergic neurons. Images of each well were scanned by CellInsight™ and immunopositive neurons were counted by CellProfiler and CellProfiler analyst software. Data are expressed as a percentage of GDNF-maintained TH-positive neurons. All experiments were repeated at least three times on the independent cultures. The results were expressed as the mean the SEM and were tested for the significance by either one-way ANOVA and Tukey's post hoc test or by two-tailed Student's t-test. The null hypothesis was rejected at P≤0.05."}},
  "data": [
    {"sequence": "KYEKTLDLASVDLRKMRVAELKQILHSWGEECRACAEKTDYVNLIQELAPKYA (listed as Homo sapiens) [pep3]", "values": [
      {"measurement": "survived neurons as % compared to neurons grown in the presence of NGF", "setting": "ER stressed SCG neurons; AVG of exp1-2", "result": 85.46, "unit": "% NGF"},
      {"measurement": "survived neurons as % compared to neurons grown in the presence of NGF", "setting": "ER stressed SCG neurons; exp1, counted after 3 days", "result": 83.08, "unit": "% NGF"},
      {"measurement": "survived neurons as % compared to neurons grown in the presence of NGF", "setting": "ER stressed SCG neurons; exp2, counted after 3 days", "result": 87.84, "unit": "% NGF"},
      {"measurement": "Fold change of survived neurons compared to neurons injected with PBS", "setting": "ER stressed SCG neurons; Table 2, AVG", "result": "2.32 Fold to PBS"},
      {"measurement": "Fold change of survived neurons compared to neurons injected with PBS", "setting": "ER stressed SCG neurons; Table 2, exp1", "result": "2.42 Fold to PBS"},
      {"measurement": "Fold change of survived neurons compared to neurons injected with PBS", "setting": "ER stressed SCG neurons; Table 2, exp2", "result": "2.21 Fold to PBS"},
      {"measurement": "survived neurons as % compared to neurons grown in the presence of GDNF", "setting": "dopamine neurons; AVG, 1 ng/ml", "result": 66.40, "unit": "% GDNF"},
      {"measurement": "survived neurons as % compared to neurons grown in the presence of GDNF", "setting": "dopamine neurons; AVG, 10 ng/ml", "result": 73.60, "unit": "% GDNF"},
      {"measurement": "survived neurons as % compared to neurons grown in the presence of GDNF", "setting": "dopamine neurons; AVG, 100 ng/ml", "result": 74.14, "unit": "% GDNF"},
      {"measurement": "survived neurons as % compared to neurons grown in the presence of GDNF", "setting": "dopamine neurons; AVG, 1000 ng/ml", "result": 81.99, "unit": "% GDNF"},
      {"measurement": "survived neurons as % compared to neurons grown in the presence of GDNF", "setting": "dopamine neurons; exp1, 1 ng/ml", "result": 73.87, "unit": "% GDNF"},
      {"measurement": "survived neurons as % compared to neurons grown in the presence of GDNF", "setting": "dopamine neurons; exp1, 10 ng/ml", "result": 74.30, "unit": "% GDNF"},
      {"measurement": "survived neurons as % compared to neurons grown in the presence of GDNF", "setting": "dopamine neurons; exp1, 100 ng/ml", "result": 85.15, "unit": "% GDNF"},
      {"measurement": "survived neurons as % compared to neurons grown in the presence of GDNF", "setting": "dopamine neurons; exp1, 1000 ng/ml", "result": 84.53, "unit": "% GDNF"},
      {"measurement": "survived neurons as % compared to neurons grown in the presence of GDNF", "setting": "dopamine neurons; exp2, 1 ng/ml", "result": 62.76, "unit": "% GDNF"},
      {"measurement": "survived neurons as % compared to neurons grown in the presence of GDNF", "setting": "dopamine neurons; exp2, 10 ng/ml", "result": 64.35, "unit": "% GDNF"},
      {"measurement": "survived neurons as % compared to neurons grown in the presence of GDNF", "setting": "dopamine neurons; exp2, 100 ng/ml", "result": 58.79, "unit": "% GDNF"},
      {"measurement": "survived neurons as % compared to neurons grown in the presence of GDNF", "setting": "dopamine neurons; exp2, 1000 ng/ml", "result": 80.59, "unit": "% GDNF"},
      {"measurement": "survived neurons as % compared to neurons grown in the presence of GDNF", "setting": "dopamine neurons; exp3, 1 ng/ml", "result": 62.58, "unit": "% GDNF"},
      {"measurement": "survived neurons as % compared to neurons grown in the presence of GDNF", "setting": "dopamine neurons; exp3, 10 ng/ml", "result": 82.16, "unit": "% GDNF"},
      {"measurement": "survived neurons as % compared to neurons grown in the presence of GDNF", "setting": "dopamine neurons; exp3, 100 ng/ml", "result": 78.46, "unit": "% GDNF"},
      {"measurement": "survived neurons as % compared to neurons grown in the presence of GDNF", "setting": "dopamine neurons; exp3, 1000 ng/ml", "result": 80.86, "unit": "% GDNF"},
      {"measurement": "Fold change of survived neurons compared to neurons grown without growth factors", "setting": "dopamine neurons; Table 4, AVG, 1 ng/ml", "result": 1.08, "unit": "fold"},
      {"measurement": "Fold change of survived neurons compared to neurons grown without growth factors", "setting": "dopamine neurons; Table 4, AVG, 10 ng/ml", "result": 1.20, "unit": "fold"},
      {"measurement": "Fold change of survived neurons compared to neurons grown without growth factors", "setting": "dopamine neurons; Table 4, AVG, 100 ng/ml", "result": 1.21, "unit": "fold"},
      {"measurement": "Fold change of survived neurons compared to neurons grown without growth factors", "setting": "dopamine neurons; Table 4, AVG, 1000 ng/ml", "result": 1.34, "unit": "fold"},
      {"measurement": "Fold change of survived neurons compared to neurons grown without growth factors", "setting": "dopamine neurons; Table 4, exp1, 1 ng/ml", "result": 1.29, "unit": "fold"},
      {"measurement": "Fold change of survived neurons compared to neurons grown without growth factors", "setting": "dopamine neurons; Table 4, exp1, 10 ng/ml", "result": 1.30, "unit": "fold"},
      {"measurement": "Fold change of survived neurons compared to neurons grown without growth factors", "setting": "dopamine neurons; Table 4, exp1, 100 ng/ml", "result": 1.49, "unit": "fold"},
      {"measurement": "Fold change of survived neurons compared to neurons grown without growth factors", "setting": "dopamine neurons; Table 4, exp1, 1000 ng/ml", "result": 1.48, "unit": "fold"},
      {"measurement": "Fold change of survived neurons compared to neurons grown without growth factors", "setting": "dopamine neurons; Table 4, exp2, 1 ng/ml", "result": 1.00, "unit": "fold"},
      {"measurement": "Fold change of survived neurons compared to neurons grown without growth factors", "setting": "dopamine neurons; Table 4, exp2, 10 ng/ml", "result": 1.02, "unit": "fold"},
      {"measurement": "Fold change of survived neurons compared to neurons grown without growth factors", "setting": "dopamine neurons; Table 4, exp2, 100 ng/ml", "result": 0.93, "unit": "fold"},
      {"measurement": "Fold change of survived neurons compared to neurons grown without growth factors", "setting": "dopamine neurons; Table 4, exp2, 1000 ng/ml", "result": 1.28, "unit": "fold"},
      {"measurement": "Fold change of survived neurons compared to neurons grown without growth factors", "setting": "dopamine neurons; Table 4, exp3, 1 ng/ml", "result": 0.97, "unit": "fold"},
      {"measurement": "Fold change of survived neurons compared to neurons grown without growth factors", "setting": "dopamine neurons; Table 4, exp3, 10 ng/ml", "result": 1.27, "unit": "fold"},
      {"measurement": "Fold change of survived neurons compared to neurons grown without growth factors", "setting": "dopamine neurons; Table 4, exp3, 100 ng/ml", "result": 1.21, "unit": "fold"},
      {"measurement": "Fold change of survived neurons compared to neurons grown without growth factors", "setting": "dopamine neurons; Table 4, exp3, 1000 ng/ml", "result": 1.25, "unit": "fold"}
    ]}
  ]
}
